Measured values taken from patent US20160030369A1, “FKBP52 TARGETING AGENT PHARMACEUTICAL COMPOSITIONS” (THE UNITED STATES OF AMERICA AS REPRESENTED BY THE …, priority 2013, published 2016).
In brackets after ≈: the same amount, converted by molar mass. Read-outs that look alike come from different tables or passages of the source.

Columns and labels:
AR = conditions: cellular models of prostate cancer, micromolar concentrations; cited from earlier work
[1] = Solubility of MJC13 in various solvents, shake-flask method; assay type: physicochemical; conditions: DMSO, organic solvent or mixture
[2] = Freeze-thaw stability of MJC13 in rat plasma and rat urine; assay type: in vitro ADME
Procedure: Freeze-thaw stability of MJC13 in rat plasma and rat urine were evaluated by analyzing QC samples at low, medium, and high concentrations. Plasma samples that were exposed for three cycles of freezing (at −20° C.) and thawing (at room temperature) were compared with freshly prepared samples at the same concentrations.
The stability of MJC13 in rat urine was conducted in the same fashion as in rat plasma.

[3] = Lipophilicity (log P) between water and 1-octanol, shake-flask; assay type: physicochemical; conditions: 1-octanol/water, room temperature, read-out: experimental log P
Procedure: The lipophilicity of MJC13 was determined as the logarithm of partition coefficient (log P) of the solute between water and 1-octanol. Equal volumes of two-phase solution (water and 1-octanol) was mixed well in a capped glass bottle and then placed in a shaker for 24 hours to make sure that saturation equilibrium had been achieved. MJC13 (1 mL) dissolved in the two-phase solution was added the bottle. Then, MJC13 was partitioned between aqueous and 1-octanol for 72 hours at room temperature using the shake-flask method. The mixture from the bottle was centrifuged at 3000 rpm for 10 minutes and subsequently filtered through a 0.22 μm ultrafiltration unit, and then moved to a separatory funnel for phase separation. The aqueous and 1-octanol phases were analyzed by LC-MS/MS to determine the concentration of drug dissolved. Experiments were conducted in triplicate. The log P was calculated according to Eq. 3: […]
where Co and Cw represent the concentrations of MJC13 in 1-octanol and aqueous phase, respectively.

[4] = Pharmacokinetics of MJC13 (Formulation PT4) after IV bolus in rats, three-compartment model; assay type: in vivo, Sprague-Dawley rats; conditions: single IV bolus 2 mg/kg, Formulation PT4, n = 8; for half-life / Vd: iv, 2 mg/kg
Procedure: To further determine the fate of MJC13 in live animals and verify the applicability of the developed LC/MS/MS assay and formulations, pharmacokinetic studies were performed in rats. The animal experiment and protocol were reviewed and approved by the Institutional Animal Care and Use Committee at Texas Southern University. The jugular veins of eight male adult Sprague-Dawley rats (358˜377 g) were cannulated under anesthesia using a cocktail of ketamine:acetopromazine:xylazine (50:3.3:3.3 mg/kg) the day before the study. On the day of study, Formulation PT4, which includes PEG 400 and Tween 80 (1:1, v/v) with a MJC13 concentration of 7.5 mg/mL, was diluted to 1 mg/mL by normal saline. Blood and urine samples were collected from each rat right before dosing. Each rat was given a 2 mg/kg intravenous (IV) bolus dose of MJC13. Blood sample collecting tubes were heparinized and dried. In order to avoid any possible contamination, after dosing for each rat, the foremost part of each tubing associated with the needle for dosing was cut off, and then 0.5 mL of normal saline containing 20 U/mL heparin was injected to flush the tubing. Blood samples (250 μL; n=8) were collected at 5, 10, 15, 30 minutes, 1, 2, 4, 6, 8, 12, 24, 48 and 72 hours post injection, respectively. The blood samples were centrifuged at 13,000 rpm for 10 minutes and the supernatants (plasma) were obtained and immediately stored at −80° C. until analysis. Urine samples (n=4) were collected periodically, including 0-2, 2-4, 4-8, 8-12, 12-24, 24-48 and 48-72 hours post injection. After measurement of the overall urinary volume of each interval, urine samples were immediately stored at −80° C. until analysis. Within 48 hours, those plasma and urine samples were analyzed by the LC/MS/MS method of Example 1 to obtain MJC13 concentrations. After analysis, the plasma concentrations and cumulative urinary excretions of MJC13 were presented as the mean value with standard deviation (SD) and plotted against time by SigmaPlot 12.3 (Systat Software, San Jose, Calif.). (FIGS. 5, 6, 7A, and 7B).
The intravenous drug plasma concentration-time data were pharmacokinetically analyzed separately for each rat by compartmental modeling using the microcomputer-based nonlinear regression program, WINNONLIN software 5.2.1 (Pharsight Corporation, Mountain View, Calif.). A three-compartment model was provided which best described the fit for the IV bolus administration based on the appearance of the observed and predicted concentrations, the reduction in the sums of squares, and the Akaike's information criterion (Yamaoka et al., J. Pharmacokinet Biopharm., 6(2): 165-75 (1978)). The three-compartment model is described by Eq. 5:
Ct=A·e^−αt+B·e^−βt+C·e^−γt, Eq. 5
where A, B and C are the coefficients, α is the α-phase hybrid rate constant, β is β-phase hybrid rate constant, γ is the γ-phase hybrid rate constant, and Ct is the plasma concentration of MJC13 at time t. The pharmacokinetic parameters thus derived were the systemic or plasma clearance (Cl), the volume of distribution (Vd), the total area under the plasma drug concentration-time curve (AUC), and half-lives (T1/2).

[5] = Solubility of MJC13 in various solvents, shake-flask method; assay type: physicochemical; conditions: thermodynamic from solid
Procedure: The solubility of MJC13 was evalulated. Because there is no ionizable functional group on the molecular structure, the solubility of MJC13 was expected to be low in water and barely affected by pH. In this work, the solubility of MJC13 in water, ethanol, propylene glycol, polyethylene glycol 400 (PEG 400), polysorbate 80 (Tween 80), olive oil, peanut oil, soybean oil, CAPTEX 200 and LABRAFAC Lipophile WL1349 was determined by a shake-flask method. Briefly, an excess amount of MJC13 was added to each capped glass bottle containing the selected vehicle and mixed for 48 hours at room temperature using a reciprocating shaker. The samples were centrifuged at 3000 rpm for 10 minutes and were subsequently filtered through a 0.22 μm ultrafiltration unit. The filtrates were analyzed by LC/MS/MS to determine the concentration of drug dissolved. The experiments were conducted in triplicate.

O=C(Nc1cccc(Cl)c1Cl)C1CCCCC1 [MJC13]
block of AR-dependent gene expression (AR): effectively block AR-dependent gene expression
solubility [1]: > 100 mg/mL
average MJC13 amount remaining ([2]; rat plasma, three freeze (−20° C.)-thaw (room temperature) cycles): 96.7±2.0%
average MJC13 amount remaining ([2]; rat urine, three freeze-thaw cycles): 97.5±2.4%
logP at 72 h [3]: 6.49 ± 0.37
clearance ([4]; male, Sprague-Dawley, plasma, rat, read-out: Cl (total body clearance)): 6.04 ± 2.43 mL/min/kg
half-life ([4]; male, Sprague-Dawley, rat, plasma, rat plasma, read-out: T1/2α (elimination half-life of α-phase)): 0.094 ± 0.0217 h
half-life ([4]; male, Sprague-Dawley, rat, plasma, rat plasma, read-out: T1/2β (elimination half-life of β-phase)): 2.1 ± 0.317 h
half-life ([4]; male, Sprague-Dawley, rat, plasma, rat plasma, read-out: T1/2γ (elimination half-life of γ-phase)): 32.3 ± 12.1 h
Vd ([4]; male, Sprague-Dawley, rat, plasma, rat, read-out: V1 (volume of distribution of central compartment)): 0.744 ± 0.074 L/kg
Vd ([4]; male, Sprague-Dawley, rat, plasma, rat, read-out: Vss (volume of distribution at steady state)): 10.8 ± 2.13 L/kg
AUC(0-inf) ([4]; male, Sprague-Dawley, rat plasma, read-out: AUC0-∞ (area under curve from time zero to infinity) (converted)): 6640 ng·h/mL
Cmax ([4]; male, Sprague-Dawley, rat plasma, read-out: Cmax (maximum concentration)): 2710 ± 251 ng/mL
A (coefficient of α-phase) ([4]; rat plasma): 2124 ± 222 ng/mL
B (coefficient of β-phase) ([4]; rat plasma): >483 ± 126 ng/mL
C (coefficient of γ-phase) ([4]; rat plasma): 101 ± 36 ng/mL
V2 (volume of distribution of first peripheral compartment) ([4]; rat): 2.038 ± 0.646 L/kg
V3 (volume of distribution of second peripheral compartment) ([4]; rat): 8.068 ± 1.6 L/kg
solubility at 48 h ([5]; Captex 200, oil or lipid, Captex ® 200, room temperature, read-out: Solubility): 31.9 ± 1.6 mg/mL (≈ 117 mM)
solubility at 48 h ([5]; Labrafac Lipophile WL1349, oil or lipid, Labrafac ™ Lipophile WL1349, room temperature, read-out: Solubility): 24 ± 1.1 mg/mL (≈ 88.2 mM)
solubility at 48 h ([5]; PEG 400, organic solvent or mixture, PEG 400, room temperature, read-out: Solubility): 23 ± 0.7 mg/mL (≈ 84.5 mM)
solubility at 48 h ([5]; ethanol, organic solvent or mixture, Ethanol, room temperature, read-out: Solubility): 35.6 ± 1.8 mg/mL (≈ 131 mM)
solubility at 48 h ([5]; olive oil, oil or lipid, Olive oil, room temperature, read-out: Solubility): 16.2 ± 0.3 mg/mL (≈ 59.5 mM)
solubility at 48 h ([5]; peanut oil, oil or lipid, Peanut oil, room temperature, read-out: Solubility): 15.6 ± 0.4 mg/mL (≈ 57.3 mM)
solubility at 48 h ([5]; polysorbate 80 (Tween 80), organic solvent or mixture, Polysorbate 80, room temperature, read-out: Solubility): 28.2 ± 0.7 mg/mL (≈ 104 mM)
solubility at 48 h ([5]; propylene glycol, organic solvent or mixture, Propylene glycol, room temperature, read-out: Solubility): 5.7 ± 0.2 mg/mL (≈ 20.9 mM)
solubility at 48 h ([5]; soybean oil, oil or lipid, Soybean oil, room temperature, read-out: Solubility): 17.3 ± 0.5 mg/mL (≈ 63.6 mM)
solubility at 48 h ([5]; water, Water, room temperature, read-out: Solubility): 0.00028 mg/mL (≈ 0.00103 mM)
solubility at 48 h ([5]; water, water, room temperature, read-out: water solubility): 0.00028 mg/mL (≈ 0.00103 mM)
